# Data: patent US20240350481A1, “USE OF N-MYRISTOYL TRANSFERASE (NMT) INHIBITORS IN THE TREATMENT OF CANCER, AUTOIMMUNE DISORDERS, AND INFLAMMATORY DISORDERS” (PACYLEX PHARMACEUTICALS INC., priority 2020, published 2024)
# Legend:
# [1] = system: patient DLBCL3 derived lymphoma xenograft; assay: DLBCL3 patient-derived xenograft, tumor growth; type: in vivo, mouse; conditions: 20 mg/kg subcutaneous daily, 21 days
# Experimental: (§1) The dose volume was 10 mL/kg.
# TGI (%)=(Vcontrol−Vtreated)/(Vcontrol−Vnitial)*100.
# The pleural fluid was collected in cold sterile 20% RPMI 1640 medium and neoplastic cells were isolated with Ficoll-Paque Plus (GE Healthcare) and re-suspended in […] (Life Technologies) with 20% foetal bovine serum (Life Technologies, Carlsbad, CA). […] The cell suspension was injected subcutaneously in the flank of 4-6-week-old NODscid mice. When the tumors reached a maximum of 1000 mm^3, the mice were sacrificed, tumors were harvested, and a necropsy was performed. Xenograft tumors were immediately frozen, fixed in formalin, and stored in 90% foetal bovine serum, and 10% dimethyl sulfoxide or placed in RPMI 1640 medium. This process was repeated to produce subsequent generations of patient-derived xenograft models (P2, P3, P4, . . . ). To evaluate the maintenance of the morphology and main characteristics of the tumor of origin, formalin-fixed, paraffin-embedded tissue sections from patient tumor samples and xenografts of all established patient-derived xenograft models were stained with haematoxylin and eosin. These sections were also immunostained to measure the expression of various markers. A clinical pathologist reviewed all the slides. […]
# [2] = Toxicology in DLBCL3 patient derived xenograft mice; type: in vivo, mouse; conditions: for Absolute Basophil cells: normal [0-0.2]; for Absolute Monocyte cells: normal [0-0.4]; for Basophil %: normal [0-2]; for Eosinophil %: normal [0-3.9]; for Monocyte %: normal [0-7.5]; for Absolute Neutrophil cells: normal [0.1- 2.4]; for WBC: normal [1.8-10.7]; for MPV: normal [5-20]; for RDW %: normal [12.4-27]
# Experimental: as §1
# [3] = rats; cited from earlier work
# [4] = Toxicology in DOHH2 xenograft mice; conditions: for Reticulocyte % / Absolute Basophil cells / Absolute Eosinophil cells / Absolute Monocyte cells / Absolute Neutrophil cells / Absolute Lymphocyte cells / WBC / MPV / RBC / Hemoglobin / RDW % / MCH / MCHC / Hematocrit % / MCV / Platelets / Aspartate Transaminase / Bilirubin / Creatine PhosphoKinase / Creatinine: DOHH2 xenograft; for Absolute Basophil cells / Absolute Eosinophil cells: normal [0-0.2]; for Absolute Monocyte cells: normal [0-0.4]; for Absolute Neutrophil cells: normal [0.1-2.4]; for Absolute Lymphocyte cells: normal [0.9-9.3]; for WBC: normal [1.8-10.7]; for MPV: normal [5-20]; for RBC: normal [6.36-9.42]; for Hemoglobin: normal [11-15.1]; for RDW %: normal [12.4-27]; for MCH: normal [14.1-19.3]; for MCHC: normal [30.2-34.2]; for Hematocrit %: normal [35.1-45.4]; for MCV: normal [45.4-60.3]; for Platelets: normal [592-2972]; for Aspartate Transaminase / Bilirubin / Creatine PhosphoKinase / Creatinine: mean ± SEM, n = 3
# Experimental: Mice were observed daily for clinical signs of toxicity and effects on body weight. After the last dose, three mice/group were euthanized and necropsied. At euthanasia, blood samples were taken for hematology analyses and to measure AST and CK activities and bilirubin and creatinine concentrations. At necropsy, samples of samples of femur, both kidneys, liver, small intestine, and injection site were taken and fixed.
# The dose volume was 10 mL/kg. At the end of the two-to three-week dosing period, mice were euthanized and three/group were necropsied. Mice that died or were euthanized early for humane reasons also were necropsied. In life, mice were monitored regularly and weighed daily, and tumors were measured with digital Vernier calipers (Mitutoyo) every other day. Tumor volume was calculated as length (mm)×width (mm)2/2; length and width were the longest and shortest diameters, respectively. At euthanasia, at the end of the dosing period blood samples were taken for hematology analyses and clinical chemistry analyses that included AST and CK activities and bilirubin and creatinine concentrations (plus ALT activity and BUN concentration in the Jackson Laboratory study). At necropsy, samples of femur, both kidneys, liver, small intestine, and injection site were collected and fixed. These were subsequently processed and examined by light microscopy for histopathologic findings. Also at necropsy, the tumors were removed and divided in two. One piece was fixed in 10% neutral buffered formalin for 24 h at room temperature and embedded in paraffin; the other was snap frozen for RNA and protein analysis. Tumor growth inhibition (TGI) for all xenograft experiments was calculated following the formula:
# EGFP-N-Ras = assay: Palmitoylation of EGFP-N-Ras in COS-7 cells; type: cell-based; conditions: 10 μM
# Experimental: The cells pre-treated with inhibitors were then labelled for 4 hrs with 100 μM Alkyne-C16. EGFP-tagged constructs were immunoprecipitated as described and reacted with azido-biotin using click chemistry. Biotinylated-palmitoylated proteins were detected using neutravidin-HRP conjugate and ECL. […] All western blots shown are representative of three independent experiments.
# [5] = DLBCL patient derived xenograft, PCLX-001 20 mg/kg/day
# [6] = DLBCL patient derived xenograft, PCLX-001 50 mg/kg/day
# [7] = c2, head missing (per Table 4: PCLX-001 10 mg/kg/day)
# [8] = c3, head missing (per Table 4: PCLX-001 20 mg/kg/day)
# [9] = c4, head missing (per Table 4: PCLX-001 50 mg/kg/day Interm.)
# [10] = c5, head missing (per Table 4: PCLX-001 50 mg/kg/day)
smiles,measurement,setting,value
Cc1c(N[S+](=O)([O-])c2c(Cl)cc(-c3ccnc(N4CCNCC4)c3)cc2Cl)c(CC(C)C)nn1C [PCLX-001],TGI,[1],66%
same,loss of body weight,[2]; 50 mg/kg daily,~15%
same,"clinical signs, clinical pathology, anatomic pathology",[2]; 20 and 50 mg/kg,"no clinical signs of toxicity, effects on clinical pathology parameters, or anatomic pathology findings"
same,Hematocrit %,[2]; [5],47.13 ± 1.1%
same,MCV,[2]; [5],53.5 ± 0.36
same,Neutrophil %,[2]; [5],57.17 ± 9.40%
same,RBC,[2]; [5],8.81 ± 0.15 M/ul
same,Absolute Basophil cells,[2]; [5],0 ± 0
same,Absolute Monocyte cells,[2]; [5],0.23 ± 0.06
same,Basophil %,[2]; [5],0.1 ± 0.04%
same,Eosinophil %,[2]; [5],0.26 ± 0.08%
same,Monocyte %,[2]; [5],15.48 ± 4.35%
same,Absolute Neutrophil cells,[2]; [5],0.86 ± 0.22
same,WBC,[2]; [5],1.49 ± 0.24 K/ul
same,MPV,[2]; [5],4.93
same,RDW %,[2]; [5],18.07 ± 0.03%
same,Hematocrit %,[2]; [6],42.47 ± 4.04%
same,MCV,[2]; [6],50.83 ± 0.35
same,Neutrophil %,[2]; [6],58.04%
same,RBC,[2]; [6],8.36 ± 0.83 M/ul
same,Absolute Basophil cells,[2]; [6],0 ± 0
same,Absolute Monocyte cells,[2]; [6],0.37 ± 0.07
same,Basophil %,[2]; [6],0.04 ± 0.04%
same,Eosinophil %,[2]; [6],0.32 ± 0.1%
same,Monocyte %,[2]; [6],17.24%
same,Absolute Neutrophil cells,[2]; [6],1.28 ± 0.34
same,Absolute Lymphocyte cells,"[2]; DLBCL patient derived xenograft, PCLX-001 50 mg/kg/day, normal [0.9-9.3]",0.52 ± ? .12
same,WBC,[2]; [6],2.17 ± 0.5 K/ul
same,MPV,[2]; [6],5.27 ± 0.18
same,RDW %,[2]; [6],20.37 ± 0.37%
same,MCH,"[2]; DLBCL patient derived xenograft, PCLX-001 50 mg/kg/day, normal [14.1-19.3]",12.5 pg
same,MCHC,"[2]; DLBCL patient derived xenograft, PCLX-001 50 mg/kg/day, normal [30.2-34.2]",24.53 ± 0.24 g/dL
same,Lymphocyte %,"[2]; DLBCL patient derived xenograft, PCLX-001 50 mg/kg/day, normal [55.8-91.6]",24.36 ± 2.93%
same,toxicity at high dose levels,[3],hematopoietic toxicity
same,neutrophil and monocyte counts,[4]; 50 mg/kg daily,lower than normal in all three mice
same,RBC counts,[4]; 50 mg/kg every other day,lower than normal in all three mice
same,femoral bone marrow histopathology,[4]; 50 mg/kg groups,no histopathologic findings
same,Reticulocyte %,[4]; PCLX-001 10 mg/kg/day,8.08 ± 1.58%
same,Absolute Basophil cells,[4]; PCLX-001 10 mg/kg/day,0.01 ± 0 K/ul
same,Absolute Eosinophil cells,[4]; PCLX-001 10 mg/kg/day,0.05 ± 0.02 K/ul
same,Absolute Monocyte cells,[4]; PCLX-001 10 mg/kg/day,0.52 ± 0.06 K/ul
same,Absolute Neutrophil cells,[4]; PCLX-001 10 mg/kg/day,4.89 ± 0.34 K/ul
same,Absolute Lymphocyte cells,[4]; PCLX-001 10 mg/kg/day,0.83 ± ? .19 K/ul
same,WBC,[4]; PCLX-001 10 mg/kg/day,6.3 ± 0.12 K/ul
same,MPV,[4]; PCLX-001 10 mg/kg/day,6.77 ± 0.18 fL
same,RBC,[4]; PCLX-001 10 mg/kg/day,9.45 ± 0.1 M/ul
same,Hemoglobin,[4]; PCLX-001 10 mg/kg/day,14.13 ± 0.18 g/dL
same,RDW %,[4]; PCLX-001 10 mg/kg/day,25.97 ± 0.46%
same,MCH,[4]; PCLX-001 10 mg/kg/day,14.93 ± 0.03 pg
same,MCHC,[4]; PCLX-001 10 mg/kg/day,32.73 ± 0.07 g/dL
same,Hematocrit %,[4]; PCLX-001 10 mg/kg/day,43.2 ± 0.61%
same,MCV,[4]; PCLX-001 10 mg/kg/day,45.7 ± 0.2 fL
same,Platelets,[4]; PCLX-001 10 mg/kg/day,1490 ± 91.31 K/uL
same,Reticulocyte %,[4]; PCLX-001 20 mg/kg/day,7.21 ± 0.49%
same,Absolute Basophil cells,[4]; PCLX-001 20 mg/kg/day,0.01 ± 0 K/ul
same,Absolute Eosinophil cells,[4]; PCLX-001 20 mg/kg/day,0.02 ± 0.01 K/ul
same,Absolute Neutrophil cells,[4]; PCLX-001 20 mg/kg/day,3.94 ± 0.94 K/ul
same,Absolute Lymphocyte cells,[4]; PCLX-001 20 mg/kg/day,0.84 ± ? .15 K/ul
same,WBC,[4]; PCLX-001 20 mg/kg/day,5.41 ± 1.05 K/ul
same,MPV,[4]; PCLX-001 20 mg/kg/day,7.63 ± 0.23 fL
same,RBC,[4]; PCLX-001 20 mg/kg/day,9.03 ± 0.32 M/ul
same,Hemoglobin,[4]; PCLX-001 20 mg/kg/day,13.97 ± 0.44 g/dL
same,RDW %,[4]; PCLX-001 20 mg/kg/day,25.13 ± 0.65%
same,MCH,[4]; PCLX-001 20 mg/kg/day,15.43 ± 0.3 pg
same,MCHC,[4]; PCLX-001 20 mg/kg/day,33.03 ± 0.22 g/dL
same,Hematocrit %,[4]; PCLX-001 20 mg/kg/day,42.33 ± 1.48%
same,MCV,[4]; PCLX-001 20 mg/kg/day,46.9 ± 0.65 fL
same,Platelets,[4]; PCLX-001 20 mg/kg/day,1234.7 ± 38.49 K/uL
same,Reticulocyte %,[4]; PCLX-001 50 mg/kg/day,6.7 ± 0.3%
same,Reticulocyte %,[4]; PCLX-001 50 mg/kg/day Interm.,13.28 ± 6.74%
same,Absolute Basophil cells,[4]; PCLX-001 50 mg/kg/day Interm.,0 ± 0 K/ul
same,Absolute Eosinophil cells,[4]; PCLX-001 50 mg/kg/day Interm.,0.05 ± 0.03 K/ul
same,Absolute Monocyte cells,[4]; PCLX-001 50 mg/kg/day Interm.,0.91 ± 0.14 K/ul
same,Absolute Lymphocyte cells,[4]; PCLX-001 50 mg/kg/day Interm.,1.51 ± 0.47 K/ul
same,WBC,[4]; PCLX-001 50 mg/kg/day Interm.,5.94 ± 1.19 K/ul
same,MPV,[4]; PCLX-001 50 mg/kg/day Interm.,7.17 ± 0.09 fL
same,RBC,[4]; PCLX-001 50 mg/kg/day Interm.,8.07 ± 0.12 M/ul
same,Hemoglobin,[4]; PCLX-001 50 mg/kg/day Interm.,12.6 ± 0.15 g/dL
same,RDW %,[4]; PCLX-001 50 mg/kg/day Interm.,27.2 ± 1.82%
same,MCH,[4]; PCLX-001 50 mg/kg/day Interm.,15.63 ± 0.12 pg
same,MCHC,[4]; PCLX-001 50 mg/kg/day Interm.,31.90 ± 1.01 g/dL
same,Hematocrit %,[4]; PCLX-001 50 mg/kg/day Interm.,39.53 ± 0.84%
same,MCV,[4]; PCLX-001 50 mg/kg/day Interm.,49.07 ± 1.72 fL
same,Platelets,[4]; PCLX-001 50 mg/kg/day Interm.,1673.7 ± 309.81 K/uL
same,Absolute Basophil cells,[4]; PCLX-001 50 mg/kg/day,0 ± 0 K/ul
same,Absolute Eosinophil cells,[4]; PCLX-001 50 mg/kg/day,0.01 ± 0.01 K/ul
same,Absolute Monocyte cells,[4]; PCLX-001 50 mg/kg/day,0.19 ± 0.06 K/ul
same,Absolute Neutrophil cells,[4]; PCLX-001 50 mg/kg/day,1.45 ± 0.22 K/ul
same,Absolute Lymphocyte cells,[4]; PCLX-001 50 mg/kg/day,0.23 ± 0.06 K/ul
same,WBC,[4]; PCLX-001 50 mg/kg/day,1.89 ± 0.31 K/ul
same,MPV,[4]; PCLX-001 50 mg/kg/day,7 ± 0.3 fL
same,RBC,[4]; PCLX-001 50 mg/kg/day,9.3 ± 0.17 M/ul
same,Hemoglobin,[4]; PCLX-001 50 mg/kg/day,14.77 ± 0.23 g/dL
same,RDW %,[4]; PCLX-001 50 mg/kg/day,25.8 ± 0.3%
same,MCH,[4]; PCLX-001 50 mg/kg/day,15.9 ± 0.1 pg
same,MCHC,[4]; PCLX-001 50 mg/kg/day,34.1 ± 0.1 g/dL
same,Hematocrit %,[4]; PCLX-001 50 mg/kg/day,43.3 ± 0.7%
same,MCV,[4]; PCLX-001 50 mg/kg/day,46.6 ± 0.2 fL
same,Platelets,[4]; PCLX-001 50 mg/kg/day,900.7 ± 60.8 K/uL
same,Aspartate Transaminase,[4]; [7],104.33 ± 27.34 U/L
same,Bilirubin,[4]; [7],0.1 ± 0 mg/dL
same,Creatine PhosphoKinase,[4]; [7],81.7 ± 25.1 U/L
same,Creatinine,[4]; [7],0.3 ± 0.067 mg/dL
same,Aspartate Transaminase,[4]; [8],132.67 ± 55.29 U/L
same,Bilirubin,[4]; [8],0.1 ± 0 mg/dL
same,Creatine PhosphoKinase,[4]; [8],54 ± 14.7 U/L
same,Creatinine,[4]; [8],0.3 ± 0 mg/dL
same,Aspartate Transaminase,[4]; [9],125.67 ± 68.18 U/L
same,Bilirubin,[4]; [9],0.1 ± 0 mg/dL
same,Creatine PhosphoKinase,[4]; [9],92.3 ± 29.5 U/L
same,Creatinine,[4]; [9],0.3 ± 0 mg/dL
same,Aspartate Transaminase,[4]; [10],279.7 ± 34.17 U/L
same,Bilirubin,[4]; [10],0.1 ± 0 mg/dL
same,Creatine PhosphoKinase,[4]; [10],266.67 ± 69.9 U/L
same,Creatinine,[4]; [10],0.2 ± 0 mg/dL
same,Noteworthy findings after last dose,"[4]; Group 2, Low-dose, 10 mg/kg",None
same,Noteworthy findings after last dose,"[4]; Group 4, Mid-dose, 20 mg/kg",None
same,mortality,[4]; any dose,does not increase mortality
same,palmitoylation of EGFP-N-Ras,EGFP-N-Ras,does not inhibit
